The test system of series [1] is Coxsackievirus B3 (Nancy). Kind of series: Viral yield reduction assay in Vero cells. The class given is cell-based. The following applies: for IC50: Enterovirus B, B3 / CVB3, viral yield reduction, Vero cells, CVB3 Nancy at m.o.i. 0.01, 24 h, read-out: IC50 (50% virus-inhibiting concentration); for SI (selectivity index, ratio CC50/IC50): viral yield reduction assay, CC50 24 h / IC50. The protocol: Coxsackievirus B3 (CVB3, strain Nancy) was obtained from the collection of viruses of the Pasteur Institute (St. Petersburg, Russia). The permissive cell line Vero (ATCC #CCL-81) was used in the study. Infectious titers (in a 50%-tissue culture infection dose, TCID50) were determined in Vero cells for CVB3 by endpoint dilution assay using the following procedure. Permissive cells were seeded into 96-wells plates in Eagles minimal essential medium (MEM) supplemented with 5% fetal bovine serum (FBS). After 24 h, the medium was aspirated, the wells were washed with saline, fresh MEM without FBS was added to the wells and the cells were infected with serial tenfold dilutions of virus stocks (100 µL per well, 4 wells for each dilution). The plates were incubated at +37 °C in 5% CO2 and observed daily for cytopathic effect (CPE). After 72 h the viral titer was calculated in TCID50 using the method of Spearmen-Carber.
The antiviral activity of the compounds was evaluated using viral yield reduction assay. The respective permissive cell line Vero was seeded in MEM supplemented with 5% FBS in 24-well plates. When the cell confluence reached 100%, the compounds tested were dissolved in DMSO, and a series of three-fold dilutions of each compound in MEM without FBS was added to the cells, and incubated at 37 °C in 5% CO2. After 1 h, the media were discarded; equal volumes of fresh serial dilutions of each compound and viral suspension in MEM without FBS at […] were added. In control wells, only MEM without FBS was added. No compounds were added in the virus control wells. The plates were incubated at 4 °C for 1 h. The unbound virus was then washed away and, again, three-fold dilutions of each compound (the final concentration 50–0.6 µg/mL) in MEM without FBS were added to the wells. After 24 h of incubation at 37 °C in 5% CO2, the infectious titer of viral progeny (in TCID50) for each compound concentration, cell control, and virus control wells were determined in permissive cell lines by endpoint dilution assay as described above.
The titer of virus progeny was plotted against log concentration of the compounds tested to generate the dose–response curve. The 50% inhibition concentration (IC50) of each compound tested (i.e., the compound concentration that decreases the infectious viral progeny titer twice, as compared to the control wells) was calculated using a four-parameter logistic nonlinear regression model (GraphPad Prism 6.01).

A short description of series [2]: Cytotoxicity assay (MTT) in Vero cells. The format is cell-based. The following applies: African green monkey; for CC50 at 24 h: 24 h incubation with the compound only; for CC50 at 72 h: 72 h incubation with the compound only. The protocol: (§1) Vero cells were seeded in 96-well plates in 24 h before the assay. On the assay day, the cells were washed with saline and tested compounds in appropriate concentrations (300–3 μg/mL) in MEM without FBS were added to cells. No compounds were added to virus control wells. The plates were incubated for 1 h at 37 °C at 5% CO2. The cells were then infected with CVB3 Nancy (m.o.i range of 1–0.001) and incubated for 72 h at 37 °C at 5% CO2. No virus was added to the cytotoxicity control wells. Cell viability was then assessed using an MTT test with the following procedure. The cells were washed with saline, and a solution of 3-(4,5-dimethylthiazolyl-2) 2,5-diphenyltetrazolium bromide (ICN Biochemicals Inc., Aurora, OH, USA) ([…]) in MEM was added to the wells (100 µL per well). After 2 h of incubation at 37 °C in 5% CO2, the supernatant from wells was discarded, and the formazan residue was dissolved in DMSO (100 µL per well). The optical density of cells was then measured on a Multiskan multifunctional reader (Thermo Fisher Scientific, Shanghai, China) at a wavelength of 540 nm.
(§2) The microtetrazolium test (MTT) was used to study the cytotoxicity of the compounds. The permissive cell line Vero was seeded in 96-well plates in Eagles minimal essential medium (MEM) supplemented with 10% FBS. After 24 h, the media were removed, and the wells were washed with saline. Compounds were dissolved in DMSO, and a series of two-fold dilutions of each compound in MEM without FBS were prepared and added to the cells in triplicates. […] The MTT was then performed as described above. Next, the optical density of cells was measured on a Multiskan multifunctional reader (Thermo Fisher Scientific, Shanghai, China) at a wavelength of 540 nm and plotted against the concentration of the compounds to generate the dose–response curve. The 50% cytotoxic dose (CC50) of each compound (i.e., the compound concentration that causes the death of 50% of cells in a culture, or decreases the optical density twice, as compared to the control wells) was calculated using a four-parameter logistic nonlinear regression model (GraphPad Prism 6.01).

The subject of a further series is Vero cells. Kind of series: Cytotoxicity assay (MTT) in Vero cells. The class given is cell-based. The following applies: incubation with the compound only. The protocol: as §1, §2
The subject of series [3] is CVB3 Nancy. Kind of series: Cytoprotection assay (MTT) in Vero cells infected with CVB3 Nancy. The conditions noted are these: for EC50: Enterovirus B, Vero cells infected with CVB3 Nancy at m.o.i. 0.001, 72 h, MTT, read-out: EC50 (50% cytoprotective concentration); for SI (selectivity index, ratio CC50/IC50): cytoprotection assay, CC50 72 h / EC50. The format is cell-based, Coxsackievirus B3. As to the method: as §1
The cytoprotective activity of compounds was considered to be their ability to increase the values of OD compared to control wells (using only a virus, without drugs). Based on the results obtained, the values of IC50, i.e., the concentration of compounds that result in 50% cells protection were calculated for m.o.i. 0.001 using GraphPad Prism 6.01 software.

The test system of series [4] is CVB3 Nancy. Nature of the series: Thermostability assay (capsid binding, heat inactivation of virus). The following applies: pre-incubation 30 min at 37 °C, thermal gradient 37-55 °C for 2 min; for Effect on heat inactivation of CVB3 (capsid stabilization): versus virus control; for Temperature to which infectivity of CVB3 was preserved: concentrations greatly exceeding IC50. Details: species or system Coxsackievirus B3. As to the method: CVB3 Nancy was pre-incubated with the compounds tested or an equal volume of MEM (virus control) for 30 min at +37 °C in sterile thin-walled 200 μL PCR-tubes (7 tubes per each treatment condition) in BioRad CFX PCR-machine. The thermal gradient of 37–55 °C for 2 min was then applied, followed by rapid cooling to 4 °C. Subsequently, the infectious virus load at each thermal condition for each compound tested was quantified by end-point dilution assay.

A value given as a limit tells only on which side of the number the result lay.

Broadly, the CC50 is the concentration at which the toxic effect on the cells reaches its halfway point. Read a low CC50 as greater toxicity to the cells. For orientation: melting point means the temperature of the solid-liquid transition.

`O=C(O)c1ccc(NS(=O)(=O)c2ccc(N3C(=O)c4ccccc4C3=O)cc2)cc1` [Compound 2a, 4-(4-(1,3-Dioxoisoindolin-2-yl)phenylsulfonamido)benzoic acid, reference compound]: in series [1], the IC50 was determined as 5.54 ± 0.89 µM and the “SI (selectivity index, ratio CC50/IC50)” value is recorded as over 213. In series [2], this compound registered a CC50 at 24 h of over 1180 µM and a CC50 at 72 h of over 710 µM. Besides, the CC50 entry in the series on Vero cells is “exceeded the maximum concentration used in the assay”. In addition, in the series with CVB3 Nancy [3], the EC50 was under 8.76 µM and the “SI (selectivity index, ratio CC50/IC50)” value is listed as over 81.1. Besides, the “Effect on heat inactivation of CVB3 (capsid stabilization)” value (“Effect on heat inactivation of CVB3” below) with CVB3 Nancy [4] was “heat inactivation of CVB3 changed to higher temperatures”.
`NC(=O)C1CCN(S(=O)(=O)c2ccc(N3C(=O)c4ccccc4C3=O)cc2)CC1` [Compound 2h, 1-((4-(1,3-Dioxoisoindolin-2-yl)phenyl)sulfonyl)piperidine-4-carboxamide] displayed a melting point of 217 to 220 °C. Besides, the CC50 at 72 h in series [2] is over 726 µM. In the series with Vero cells, the CC50 result is “exceeded the maximum concentration used in the assay”. For the same compound, in the series with CVB3 Nancy [3], the EC50 is over 726 µM and the “SI (selectivity index, ratio CC50/IC50)” value is recorded as over 1.
Turning to `O=C(O)c1ccc(NS(=O)(=O)c2ccc(NC(=O)c3ccccc3C(=O)O)cc2)cc1` [Compound 4, 2-((4-(N-(4-Carboxyphenyl)sulfamoyl)phenyl)carbamoyl)benzoic acid], the melting point lay in the range of 203 to 205 °C. Further, in series [1], the IC50 worked out at 4.29 ± 1.79 µM and the “SI (selectivity index, ratio CC50/IC50)” value is on record as over 264. In series [2], the CC50 at 24 h is over 1140 µM and the CC50 at 72 h is over 227 µM. Moreover, the CC50 result in the series on Vero cells was “exceeded the maximum concentration used in the assay”. In the series on CVB3 Nancy [3], the EC50 came out at 13.2 ± 1.49 µM and the “SI (selectivity index, ratio CC50/IC50)” value is over 17.2. In addition, in the series on CVB3 Nancy [4], the “Temperature to which infectivity of CVB3 was preserved” value came to 52.4 °C and the “Effect on heat inactivation of CVB3” value is given as “heat inactivation of CVB3 changed to higher temperatures”.
In the case of `O=C(O)c1ccc(NS(=O)(=O)c2ccc(N3C(=O)CCC3=O)cc2)cc1` [Compound 7a, 4-(4-(2,5-Dioxopyrrolidin-1-yl)phenylsulfonamido)benzoic acid], the melting point was 243 to 245 °C (dec.). Besides, in series [1], the IC50 was determined as 4.22 ± 0.35 µM and the “SI (selectivity index, ratio CC50/IC50)” value is over 316. Also, in series [2], the cytotoxic concentration (CC50) at 24 h is over 1340 µM and the CC50 at 72 h was 345 ± 32.2 µM. Besides, in the series with CVB3 Nancy [3], the EC50 was under 9.88 µM and the “SI (selectivity index, ratio CC50/IC50)” value is given as over 34.8. For the same compound, in the series on CVB3 Nancy [4], the “Temperature to which infectivity of CVB3 was preserved” value came to 52.4 °C and the “Effect on heat inactivation of CVB3” value is on record as “heat inactivation of CVB3 changed to higher temperatures”.
Turning to `O=C(O)c1ccc(NS(=O)(=O)c2ccc(N3C(=O)C4C5C=CC(C5)C4C3=O)cc2)cc1` (centres unmarked) [Compound 7c, 4-(4-(1,3-Dioxo-3a,4,7,7a-tetrahydro-1H-4,7-methanoisoindol-2(3H)-yl)phenylsulfonamido)benzoic acid], the melting point fell in the range of 241 to 243 °C. In addition, in series [1], the IC50 turned out to be 19.6 ± 0.52 µM and the “SI (selectivity index, ratio CC50/IC50)” value was over 58. In series [2], the CC50 at 24 h is over 1140 µM and the CC50 at 72 h is over 684 µM. In addition, the CC50 result in the series on Vero cells was “exceeded the maximum concentration used in the assay”. Moreover, in the series on CVB3 Nancy [3], the EC50 is under 8.44 µM and the “SI (selectivity index, ratio CC50/IC50)” value is over 81.1.
Compound `O=C(O)c1ccc(NS(=O)(=O)c2ccc(N3C(=O)C4C5CCC(C5)C4C3=O)cc2)cc1` (centres unmarked) [Compound 7d, 4-(4-(1,3-Dioxohexahydro-1H-4,7-methanoisoindol-2(3H)-yl)phenylsulfonamido)benzoic acid] gave a melting point of 265 to 267 °C. Also, in series [1], the IC50 amounted to 19.6 ± 0.49 µM and the “SI (selectivity index, ratio CC50/IC50)” value is listed as over 58. Moreover, in series [2], the CC50 at 24 h was over 1140 µM and it took 681 ± 54.8 µM to reach half-maximal cytotoxicity (CC50 at 72 h). Besides, in the series with CVB3 Nancy [3], the EC50 is under 8.39 µM and the “SI (selectivity index, ratio CC50/IC50)” value is listed as over 81.1.

Values taken from paper PMC9694965, “Design of 4-Substituted Sulfonamidobenzoic Acid Derivatives Targeting Coxsackievirus B3” (Life, 2022).
